Bridge positions count the residues as written; N and C are the ends. Square brackets hold non-standard residues; d marks the D form. Peptide text beside a SMILES is read from it. Nle = CCCC[C@H](N)C(=O)O
Columns and labels:
chymotrypsin = chymotrypsin (Bos taurus, UniProt P00766); assay: in vitro
Experimental: FIG. 18. […] At different time point, 25 μL aliquots was taken out, and 10% (v/v) TFA was added to terminate the reaction.
Mix by centrifugation at 8000 rpm for 30 seconds.
Arrange a certain volume of 0.05 μg/μL chymotrypsin solution in another sterile EP. Incubate the EP tubes containing peptides and enzymes at 37° C. for 5 min, and add 3 μL of […] solution to each EP tube containing peptides and mix well. Start timing and extract 25 μL of reaction solution at 1.5, 3.0, 4.5, 6.0 and 9.0 min later, respectively. Add 3.75 μL of 10% TFA to terminate the reaction and mix well by centrifugation at 8000 rpm for 30 seconds.
Arrange a certain volume of 0.05 μg/μL chymotrypsin solution in another sterile EP. Incubate the EP tubes containing peptides and enzymes at 37° C. for 5 min, and then add 4.5 μL of chymotrypsin solution to each EP tube containing peptides and mix well. Start timing and extract 25 μL of reaction solution at 1.5, 3.0, 4.5, 6.0, 9.0, 15.0, 30.0, and 60.0 min later, respectively. Add 3.75 μL of 10% TFA to terminate the reaction and mix well by centrifugation at 8000 rpm for 30 seconds.
Referring to the experimental method in Example 5, in vitro stability of salmon Calcitonin analogs with oral administration activity to the enzymatic hydrolysis by trypsin, chymotrypsin and elastase were performed.
Referring to the experimental method in Example 5, in vitro stability of IL-17A inhibitory peptides towards the enzymatic hydrolysis by trypsin, chymotrypsin and elastase were performed.

bovine trypsin = molecular target: T1, bovine trypsin (Bos taurus, UniProt P00760); assay: Trypsin inhibitory activity of peptides (BApNA hydrolysis, OD405; IC50, Ki, residual activity); format: biochemical; details: for Ki: Ki=IC50/(1+S/Km), Km 0.33 mM, read-out: Ki; for IC50: trypsin 50 nM, BApNA 1.22 mM, read-out: IC50
T1 sequence (P00760 24-246): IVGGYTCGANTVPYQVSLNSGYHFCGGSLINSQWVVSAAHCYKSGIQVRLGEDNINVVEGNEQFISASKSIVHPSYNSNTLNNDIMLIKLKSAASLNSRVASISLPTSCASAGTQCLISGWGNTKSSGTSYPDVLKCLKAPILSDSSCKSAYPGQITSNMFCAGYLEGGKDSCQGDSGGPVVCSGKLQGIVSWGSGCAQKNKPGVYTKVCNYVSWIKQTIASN
Outline: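 Trypsin (50 nM final) preincubated with peptides at 37 °C in 50 mM Tris-HCl pH 7.8, 20 mM CaCl2; BApNA added (1.22 mM final), 260 min at 37 °C, then OD405 read. Residual activity from enzyme-only and substrate-only controls; IC50 fitted and converted to Ki via Ki=IC50/(1+S/Km), Km measured separately for BApNA.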

[1] = isolated enzyme chymotrypsin, pH 7.8, Remaining peak area (%)/chymotrypsin

CC[C@H](C)[C@H](N)C(=O)N[C@@H](Cc1c[nH]cn1)C(=O)N[C@H](C(=O)N[C@H](C(=O)N[C@H](C(=O)N1CCC[C@H]1C(=O)N[C@@H](C)C(=O)N[C@@H](CC(=O)O)C(=O)N[C@@H](CC(C)C)C(=O)N[C@@H](Cc1c[nH]c2ccccc12)C(=O)N[C@@H](CC(=O)O)C(=O)N[C@@H](Cc1c[nH]c2ccccc12)C(=O)N[C@H](C(=O)N[C@@H](CC(N)=O)C(=O)NCC(=O)N[C@@H](Cc1ccccc1)C(=O)N[C@H]1CSSC[C@@H](C(=O)N[C@@H](Cc2ccc(O)cc2)C(=O)NCC(=O)O)NC(=O)[C@H](CCC(N)=O)NC(=O)[C@@H]2CCCN2C(=O)[C@@H]2CCCN2C(=O)[C@H]([C@@H](C)CC)NC(=O)[C@H](CO)NC(=O)[C@H](Cc2ccc(O)cc2)NC(=O)[C@H]([C@@H](C)O)NC1=O)[C@@H](C)CC)[C@@H](C)CC)[C@@H](C)O)C(C)C [17A-CH] (H-IHVTIPADLWDWINGFCTYSIPPQCYG-OH; disulfide 17-25)
stability towards chymotrypsin hydrolysis (in words) (chymotrypsin): tolerated to the degradation of corresponding serine proteases
Remaining peak area (%)/chymotrypsin (chymotrypsin; 0 h): 100.0 ± 0.0%
remaining at 0.025 h, 60 μM (chymotrypsin; [1]): 41.6 ± 3%
remaining at 0.05 h, 60 μM (chymotrypsin; [1]): 41.7 ± 6%
remaining at 0.075 h, 60 μM (chymotrypsin; [1]): 38.8 ± 3.4%
remaining at 0.1 h, 60 μM (chymotrypsin; [1]): 45.1 ± 8.5%
remaining at 0.15 h, 60 μM (chymotrypsin; [1]): 44.3 ± 7.6%
remaining at 0.25 h, 60 μM (chymotrypsin; [1]): 35.2 ± 3.8%
remaining at 0.5 h, 60 μM (chymotrypsin; [1]): 30.5 ± 2.5%
remaining at 1 h, 60 μM (chymotrypsin; [1]): 35.7 ± 3%

CC[C@H](C)[C@@H]1NC(=O)[C@@H]2CCCN2C(=O)[C@@H]2CCCN2C(=O)[C@H]([C@@H](C)CC)NC(=O)[C@H](CO)NC(=O)[C@H](CCCCN)NC(=O)[C@H]([C@@H](C)O)NC(=O)[C@H](C)NC(=O)[C@H](CCCNC(=N)N)NC(=O)[C@H](CO)NC(=O)[C@@H](N)CSSC[C@@H](C(=O)N[C@@H](Cc2ccccc2)C(=O)O)NC1=O [BT75] (H-CSRATKSIPPICF-OH; disulfide 1-12; N-terminus and C-terminus assumed)
inhibitory activity against trypsin (in words) (bovine trypsin): excellent trypsin inhibitory activities
Ki (bovine trypsin): 8.5 nM
IC50 (bovine trypsin): 40 nM

CC[C@H](C)[C@@H]1NC(=O)[C@@H]2CCCN2C(=O)[C@@H]2CCCN2C(=O)[C@H]([C@@H](C)CC)NC(=O)[C@H](CO)NC(=O)[C@H](CCCCN)NC(=O)[C@H]([C@@H](C)O)NC(=O)[C@H](C)NC(=O)[C@H](CCCNC(=N)N)NC(=O)[C@H](CCCNC(=N)N)NC(=O)[C@@H](N)CSSC[C@@H](C(=O)N[C@@H](Cc2ccccc2)C(=O)O)NC1=O [BT76] (H-CRRATKSIPPICF-OH; disulfide 1-12; N-terminus and C-terminus assumed)
inhibitory activity against trypsin (in words) (bovine trypsin): excellent trypsin inhibitory activities
Ki (bovine trypsin): 10 nM
IC50 (bovine trypsin): 50 nM

CC[C@H](C)[C@@H]1NC(=O)[C@@H]2CCCN2C(=O)[C@@H]2CCCN2C(=O)[C@H]([C@@H](C)CC)NC(=O)[C@H](CO)NC(=O)[C@H](CCCCN)NC(=O)[C@H]([C@@H](C)O)NC(=O)[C@H](C)NC(=O)[C@H](CCCNC(=N)N)NC(=O)[C@H](CCCCN)NC(=O)[C@@H](N)CSSC[C@@H](C(=O)N[C@@H](Cc2ccccc2)C(=O)O)NC1=O [BT77] (H-CKRATKSIPPICF-OH; disulfide 1-12; N-terminus and C-terminus assumed)
inhibitory activity against trypsin (in words) (bovine trypsin): excellent trypsin inhibitory activities
Ki (bovine trypsin): 8.5 nM
IC50 (bovine trypsin): 40 nM

CC[C@H](C)[C@@H]1NC(=O)[C@@H]2CCCN2C(=O)[C@@H]2CCCN2C(=O)[C@H]([C@@H](C)CC)NC(=O)[C@H](CO)NC(=O)[C@H](CCCCN)NC(=O)[C@H]([C@@H](C)O)NC(=O)[C@H](C)NC(=O)[C@H](CCCNC(=N)N)NC(=O)[C@H](CCC(=O)O)NC(=O)[C@@H](N)CSSC[C@@H](C(=O)N[C@@H](Cc2ccccc2)C(=O)O)NC1=O [BT78] (H-CERATKSIPPICF-OH; disulfide 1-12; N-terminus and C-terminus assumed)
inhibitory activity against trypsin (in words) (bovine trypsin): excellent trypsin inhibitory activities
IC50 (bovine trypsin): 30 nM

CC[C@H](C)[C@@H]1NC(=O)[C@@H]2CCCN2C(=O)[C@@H]2CCCN2C(=O)[C@H]([C@@H](C)CC)NC(=O)[C@H](CO)NC(=O)[C@H](CCCCN)NC(=O)[C@H]([C@@H](C)O)NC(=O)[C@H](C)NC(=O)[C@H](CCCNC(=N)N)NC(=O)[C@H](CCC(N)=O)NC(=O)[C@@H](N)CSSC[C@@H](C(=O)N[C@@H](Cc2ccccc2)C(=O)O)NC1=O [BT79] (H-CQRATKSIPPICF-OH; disulfide 1-12; N-terminus and C-terminus assumed)
inhibitory activity against trypsin (in words) (bovine trypsin): excellent trypsin inhibitory activities
Ki (bovine trypsin): 10 nM
IC50 (bovine trypsin): 50 nM

CCCC[C@@H]1NC(=O)[C@@H](N)CSSC[C@@H](C(=O)N[C@@H](Cc2ccccc2)C(=O)O)NC(=O)[C@H]([C@@H](C)CC)NC(=O)[C@@H]2CCCN2C(=O)[C@@H]2CCCN2C(=O)[C@H]([C@@H](C)CC)NC(=O)[C@H](CO)NC(=O)[C@H](CCCCN)NC(=O)[C@H]([C@@H](C)O)NC(=O)[C@H](C)NC(=O)[C@H](CCCNC(=N)N)NC1=O [BT80] (H-C[Nle]RATKSIPPICF-OH; disulfide 1-12; N-terminus and C-terminus assumed)
Ki (bovine trypsin): 20 nM

Source: patent US20230416329A1, “A PEPTIDE WITH DISULFIDE BONDS AND INHIBITORY ACTIVITY AGAINST SERINE PROTEASES, DERIVED HYBRID PEPTIDES THEREOF, AND USES THEREOF” (INSTITUTE OF MATERIA MEDICA , CHINESE ACADEMY OF MEDICAL …, priority 2020, published 2023)
